Experimental data published in patent US5326902A, “Oxyalkyne compounds, pharmaceutical compositions containing them and processes for preparing such compounds and compositions” (Gruenenthal GmbH, priority 1992, dated 1994).
pIC50: −log10 of the molar value.

Experiments:
5-lipoxygenase [1] = target: T1, 5-lipoxygenase (Rattus norvegicus, UniProt P12527); assay: Inhibition of 5-lipoxygenase in RBL-1-cells; assay type: cell-based; conditions: 20 μM [14C]-arachidonic acid, 20 μM calcium ionophore A 23 187, 10 minutes
T1 construct: endogenous in cells; host or cells: RBL-1 cells (rat basophilic leukemia)
T1 sequence (P12527 1-673): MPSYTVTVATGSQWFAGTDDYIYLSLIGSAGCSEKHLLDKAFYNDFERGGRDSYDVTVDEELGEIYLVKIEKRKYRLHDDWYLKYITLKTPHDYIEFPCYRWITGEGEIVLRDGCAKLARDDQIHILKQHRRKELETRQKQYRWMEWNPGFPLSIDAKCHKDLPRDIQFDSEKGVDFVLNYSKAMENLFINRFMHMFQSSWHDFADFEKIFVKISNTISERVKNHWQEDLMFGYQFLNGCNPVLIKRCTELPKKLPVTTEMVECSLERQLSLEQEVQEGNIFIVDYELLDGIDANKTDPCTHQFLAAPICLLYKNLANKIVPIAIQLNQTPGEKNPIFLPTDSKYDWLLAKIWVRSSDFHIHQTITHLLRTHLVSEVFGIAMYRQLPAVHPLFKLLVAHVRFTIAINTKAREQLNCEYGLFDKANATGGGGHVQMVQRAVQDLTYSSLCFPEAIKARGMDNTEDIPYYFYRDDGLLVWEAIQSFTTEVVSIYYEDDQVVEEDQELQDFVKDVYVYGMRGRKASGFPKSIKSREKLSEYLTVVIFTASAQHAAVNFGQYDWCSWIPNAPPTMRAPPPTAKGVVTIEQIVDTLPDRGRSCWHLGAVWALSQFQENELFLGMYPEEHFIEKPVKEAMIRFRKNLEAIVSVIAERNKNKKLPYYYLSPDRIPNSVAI
Protocol: To determine the inhibition of 5-lipoxygenase, rat basophilic leukemia cells (RBL-1-cells) were cultured in vitro, harvested by centrifugation, washed with 50 mM potassium phosphate buffer of pH 7.4, and then suspended in this buffer at 1×10^7 cells/ml. Indomethacin (10 μM) and calcium chloride (2 mM) were added to 1 ml portions of this suspension, and then the mixture was incubated either in the presence of a compound according to the invention in a concentration range of from 0,1 μM to 100 μM or in the presence of a solvent (ethanol and/or dimethyl sulfoxide) for 3 minutes and thereafter with 20 μM of [^14 C]-arachidonic acid and 20 μM of calcium ionophore A 23 187 for 10 minutes. The reaction was stopped by adding 20 μl of glacial acetic acid, and then the mixture was extracted with ethyl acetate to isolate the metabolites of arachidonic acid formed by the enzymatic action of 5-lipoxygenase. These were separated by thin layer chromatography using a solvent mixture known to be suitable for lipoxygenase products [c.f. Jakschik et al., Biochem. Biophys. Res. Commun. 102, 624 (1981)].
The distribution of radioactivity among the different metabolites of arachidonic acid was measured using a TLC Linear Analyzer. By correlating the percentage amounts of the products formed under the action of 5-lipoxygenase (5HETE, isomers of LTB4) in the absence as well as in the presence of different concentrations of compounds according to the invention, the IC50 -values, i.e. the concentrations which cause a 50% inhibition of 5-lipoxygenase, were determined graphically from semilogarithmic plots.

5-lipoxygenase [2] = target: T1, 5-lipoxygenase; assay: Inhibition of Cell-free 5-lipoxygenase from RBL-1-cells (polarographic, 10,000 × g supernatant); assay type: biochemical; conditions: 10,000 × g supernatant of homogenized RBL-1-cells; arachidonic acid 75 μM; 35° C.; calculated IC50
Protocol: Cell-free 5-lipoxygenase was polarographically measured from 10,000 × g supernatant of homogenized rat basophilic leucemia cells (M. Haurand & L. Flohe in Biol. Chem. Hoppe-Seyler 369, 133 to 142 (1988)). After preincubation of the 10,000 × g supernatant with arachidonic acid (75 μM), ATP (adenosine triphosphate; 4 mM), reduced glutathione (4 mM), and either a compound according to the invention (0.1 to 100 μM) or a solvent (ethanol and/or dimethyl sulfoxide) at 35° C. for 5 minutes, the lipoxygenase reaction was initiated by addition of calcium chloride (3 mM) and simultaneously recorded.
The activity of 5-lipoxygenase was determined from the difference in the pO2 -decrease before and after addition of calcium chloride. The evaluation included the initial rate of the reaction after the lag-phase as well as the duration of the lag-phase. In the concentration range of from 3 to 50 μM, the test substances induced lag-phases between 20 and 60 seconds.

[3] = tested on: bronchoconstriction elicited by ovalbumin; assay: Allergen-induced bronchoconstriction in guinea pigs (Konzett-Rossler); assay type: in vivo, guinea pig; conditions: Cavia porcellus, 1 h; oral, 60 minutes before ovalbumin (0.2 mg/kg intravenous); passively sensitized guinea pigs; read-out: ED40-Value (40% average inhibition of the bronchoconstriction elicited by ovalbumin)
Protocol: The anti-asthmatic effect of compounds according to the invention was tested in anesthetized and ventilated guinea pigs. To induce an asthmatic reaction, the animals were passively sensitized by a single intraperitoneal injection of anti-ovalbumin serum. After 48 hours, the asthmatic reaction was elicited by intravenous challenge with 0.2 mg/kg of ovalbumin. The immediately resulting bronchoconstriction was measured as an increase in intratracheal pressure. Effects caused by histamine, serotonin and sympathic counterreaction were eliminated by intravenous pretreatment with 2.15 mg/kg of mepyramine, 46.4 μg/kg of propranolol, 4.64 mg/kg of atropine and 1 mg/kg of methysergide, all administered 5 minutes before challenge. Compounds according to the invention were administered orally 60 minutes before the administration of ovalbumin. The following […] for the inhibition of the bronchoconstriction elicited by ovalbumin, i.e. the effective doses causing a 40% average inhibition of the bronchoconstriction, were determined: […]

5-lipoxygenase [4] = assay: Inhibition of 5-lipoxygenase in Rat Blood After Oral Administration (ex vivo iLTB4-formation); conditions: 21.5 mg/kg oral, male Wistar rats, one hour after administration
Protocol: The bioavailability of the compounds of formula I as 5-lipoxygenase inhibitors was characterized by means of an ex vivo biochemical assay method described by Tateson et al. in Brit. J. Pharmacol. 94, 528 (1988): A compound of formula I was orally administered to male rats (Wistar strain) at a dose of 21.5 mg/kg. After lethal CO2 -narcosis one hour after administration, the rats were bled by heart puncture with added heparin as an anticoagulant. Aliquots of the whole blood were incubated at 37° C. for 30 minutes in a water bath with calcium ionophore A 23 187 at an end concentration of 15 μg/ml. At the end of the incubation, the samples were centrifuged, and the concentration of the immunoreactive LTB4 (iLTB4) in aliquots of cell-free plasma was determined by radioimmunoassay (3H-LTB4 -RIA, Amersham). To enable calculation of the inhibition in percent of ex vivo iLTB4 -formation in whole rat blood treated with a compound according to the invention, rats orally treated with an appropriate vehicle solution were included in all experiments, and aliquots of their blood were run in parallel and were processed in the same way as described. The average iLTB4 -content of the plasma of the vehicletreated rats served as a 100% value. The activity in percent of the ex vivo iLTB4 -formation after oral administration of a compound according to the invention was calculated by dividing the average value of the iLTB4 -contents in ng iLTB4 /ml of the group treated with a compound according to the invention by the average value of the iLTB4 -contents in ng iLTB4 /ml of the vehicle treated group and subsequent multiplication by a factor of 100. The respective inhibition in percent was calculated by subtracting the activity in percent from 100.

12-lipoxygenase = target: T2, 12-lipoxygenase (Homo sapiens, UniProt P18054); assay: Inhibition of 12-lipoxygenase in human blood; assay type: cell-based; parameters: 3 ml aliquots of human whole blood treated with heparin; from tissue; host or cells: human whole blood (heparinized); conditions: human whole blood; calcium ionophore A 23 187 15 μg/ml; 37° C., 30 minutes; 12-HETE by HPLC
T2 sequence (P18054 1-663): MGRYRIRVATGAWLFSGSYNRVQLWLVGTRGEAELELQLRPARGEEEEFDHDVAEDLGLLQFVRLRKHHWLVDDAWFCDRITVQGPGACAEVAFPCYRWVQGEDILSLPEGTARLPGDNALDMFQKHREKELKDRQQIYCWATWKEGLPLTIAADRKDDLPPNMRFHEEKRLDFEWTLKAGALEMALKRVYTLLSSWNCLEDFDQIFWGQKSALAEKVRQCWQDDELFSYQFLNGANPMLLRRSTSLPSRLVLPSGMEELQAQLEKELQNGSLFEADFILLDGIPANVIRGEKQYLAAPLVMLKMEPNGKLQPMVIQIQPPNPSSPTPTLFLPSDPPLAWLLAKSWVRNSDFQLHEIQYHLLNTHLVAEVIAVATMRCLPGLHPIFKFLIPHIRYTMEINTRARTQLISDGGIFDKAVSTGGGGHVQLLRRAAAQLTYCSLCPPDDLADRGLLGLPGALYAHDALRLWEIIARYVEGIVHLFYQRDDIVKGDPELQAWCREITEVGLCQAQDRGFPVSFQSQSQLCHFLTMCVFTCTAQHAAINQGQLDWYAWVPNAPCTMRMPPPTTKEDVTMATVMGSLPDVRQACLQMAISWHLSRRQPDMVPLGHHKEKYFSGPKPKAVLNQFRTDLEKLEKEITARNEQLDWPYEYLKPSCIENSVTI
Protocol: 3 ml aliquots of human whole blood treated with heparin were incubated either with a compound according to the invention or with dimethyl sulfoxide at 37° C. for 5 minutes. Then 12-lipoxygenase was activated by addition of calcium ionophore A 23 187 (15 μg/ml blood). After incubation at 37° C. for 30 minutes and centrifugation, cell-free plasma was obtained. Plasma protein was precipitated by addition of 2 ml of ethanol per ml of plasma and then separated by centrifugation. After adjusting the ethanol content in the supernatant with water to 10% by volume, the 12-lipoxygenase product 12-HETE was enriched by solid phase extraction using an octadecyl silica column. The methanolic eluate was evaporated to dryness, diluted in 40% by volume of methanol, and the 12-HETE-content was determined by HPLC. The IC50 -values of the compounds of the invention prepared according to Examples 1, 8 and 16 were 2, 4 and 3 μmolar, respectively.

## NC(=O)N(O)Cc1ccc(C(O)C#Cc2ccc(F)cc2)cc1 (racemic) [Example 25, N-Hydroxy-N-[4-[1-hydroxy-3-(4-fluorophenyl)prop-2-yn-1-yl]benzyl]urea]
5-lipoxygenase [1]
  pIC50: 5.52
5-lipoxygenase [2]
  pIC50: 5.52
[3]
  ED40: 10 mg/kg

## NC(=O)N(O)Cc1ccc(C(O)C#Cc2ccccc2)cc1 (stereo not shown) [Example 8, N-Hydroxy-N-[4-[1-hydroxy-3-phenyl-prop-2-yn-1-yl]benzyl]urea]
5-lipoxygenase [4]
  Inhibition [%] of ex vivo iLTB4-formation: 65%
5-lipoxygenase [1]
  pIC50: 5.15
5-lipoxygenase [2]
  pIC50: 5.10
12-lipoxygenase
  pIC50: 5.40

## CC(=O)N(O)Cc1ccc(C(O)C#Cc2cccs2)cc1 (stereo not shown) [Example 16, N-Hydroxy-N-[4-[1-hydroxy-3-(2-thienyl)prop-2-yn-1-yl]benzyl]acetamide]
5-lipoxygenase [1]
  pIC50: 5.52
5-lipoxygenase [2]
  pIC50: 5.22
12-lipoxygenase
  pIC50: 5.52
